Earlier results, collected in publication PMC6861001 (Chemistry (Weinheim an der Bergstrasse, Germany), 2019).

N[C@@H](C[SeH])C(=O)O [Sec, selenocysteine]
pKa of selenol group: ~5.2 | reduction potential E0: −386 mV
